Assay results taken from patent publication US11312723B2, “Pyranopyrazole and pyrazolopyridine immunomodulators for treatment of autoimmune diseases” (The Rockefeller University, priority 2017, dated 2022).

Molecular target: Human FXIIa (Homo sapiens (Human), UniProt P00748)
Test: Factor XIIa (FXIIa) inhibitory activity, chromogenic substrate (Pefachrome XIIa) cleavage
Assay type: biochemical
Conditions: 10 min pre-incubation, Pefachrome XIIa 400 μM
Procedure: Factor XIIa (FXIIa) Inhibitory Activity:
In a 96-well clear bottom plate, 80 μl of assay buffer was added to each well. Assay buffer consists of 0.5× Hank's Balanced Salt Solution (Invitrogen), buffered with 25 mM HEPES pH 7.4 (Invitrogen) and 0.5× Tris-buffered saline with Tween-20 0.05% (Santa Cruz Biotechnology). Test compounds were first dissolved in DMSO (Sigma) and then 4 μl were added to test wells containing assay buffer. Serial dilutions using an automated multi-channel pipette were used to generate a concentration range of approximately 1-100 μM. Human FXIIa (Enzyme Research Labs) was diluted in assay buffer to a final concentration of 12.5 nM. 80 μl of this enzyme solution was added to the assay wells. The enzyme/compound mixtures were incubated for 10 minutes at room temperature. Chromogenic substrate (Pefachrome XIIa; Enzyme Research Labs) was added to assay wells at a final concentration of 400 μM. The assay plate was spun for 1 minute at 1500 g and then read at 37° C. in a SpectraMax M2 plate reader (λ=405 nm). Activity was quantified as the rate of change in absorbance, which corresponds to the rate of substrate cleavage. IC50 values were determined as the concentration of inhibitor that produced 50% of the rate of change of control wells without any inhibitor. For compounds with activity <1 μM, the assay was repeated with a lower concentration range, typically from 10-1000 nM.

Sequence of Human FXIIa (P00748 373-615): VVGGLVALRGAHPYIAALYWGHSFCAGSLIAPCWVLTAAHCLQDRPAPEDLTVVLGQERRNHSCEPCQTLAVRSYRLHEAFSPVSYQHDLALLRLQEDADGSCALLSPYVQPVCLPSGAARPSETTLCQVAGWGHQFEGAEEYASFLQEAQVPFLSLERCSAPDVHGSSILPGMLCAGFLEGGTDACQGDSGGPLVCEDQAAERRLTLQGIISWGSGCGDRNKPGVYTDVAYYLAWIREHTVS
Sequence of Human FXIIa (P00748 20-372 partner): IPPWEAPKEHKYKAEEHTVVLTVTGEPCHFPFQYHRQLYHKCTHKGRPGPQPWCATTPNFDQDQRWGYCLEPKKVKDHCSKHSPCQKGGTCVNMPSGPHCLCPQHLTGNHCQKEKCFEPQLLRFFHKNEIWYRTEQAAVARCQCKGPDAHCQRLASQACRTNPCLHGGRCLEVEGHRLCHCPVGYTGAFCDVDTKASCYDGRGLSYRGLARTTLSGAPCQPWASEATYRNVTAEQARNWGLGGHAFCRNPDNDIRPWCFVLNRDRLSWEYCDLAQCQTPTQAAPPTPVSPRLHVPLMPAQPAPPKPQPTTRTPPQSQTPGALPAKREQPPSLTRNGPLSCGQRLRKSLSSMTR

| IC50 [µM] | SMILES |
| --- | --- |
| 10 | CCc1ccc2c(c1)C(C(=O)n1nc3c(c1N)CCN(S(C)(=O)=O)C3)CCN2 (single isomer, unassigned) [Example 33, (R*)-(3-amino-6-(methylsulfonyl)-4,5,6,7-tetrahydropyrazolo[3,4-c]pyridin-2-yl)(6-ethyl-1,2,3,4-tetrahydroquinolin-4-yl)methanone] |
| 35 | Cc1cccc2c1NCC[C@H]2C(=O)n1nc2c(c1N)CCN(S(=O)(=O)C1CCC1)C2 (single isomer, unassigned) [Example 183, (R*)-(3-amino-6-(cyclobutyl-sulfonyl)-4,5,6,7-tetrahydro-pyrazolo[3,4-c]pyridin-2-yl)(8-methyl-1,2,3,4-tetrahydro-quinolin-4-yl)methanone] |
| > 90 | CS(=O)(=O)N1CCc2c(N)nn(C(=O)C3CCNc4c3cccc4C(F)(F)F)c2C1 (stereo not shown) [Example 68, (3-amino-6-(methylsulfonyl)-4,5,6,7-tetrahydropyrazolo[3,4-c]pyridin-1-yl)(8-(trifluoromethyl)-1,2,3,4-tetrahydroquinolin-4-yl)methanone] |
| 31 | Nc1nn(C(=O)C2CCNc3ccc(F)cc32)c2c1CCN(S(=O)(=O)CF)C2 (stereo not shown) [Example 141, (3-amino-6-(fluoromethyl-sulfonyl)-4,5,6,7-tetrahydro-pyrazolo(3,4-c]pyridin-1-yl)(6-fluoro-1,2,3,4-tetrahydro-quinolin-4-yl)methanone] |
| 40 | Cc1cccc2c1NCCC2C(=O)n1nc(N)c2c1CCOC2 (stereo not shown) [Example 189, (3-amino-6,7-dihydropyrano[4,3-c]pyrazol-1(4H)-yl)(8-methyl-1,2,3,4-tetrahydro-quinolin-4-yl)methanone] |
| 50 | CCN1CCc2c(N)nn(C(=O)C3CCNc4c(C)cccc43)c2C1 (stereo not shown) [Example 175, (3-amino-6-ethyl-4,5,6,7-tetrahydro-pyrazolo[3,4-c]pyridin-1-yl)(8-methyl-1,2,3,4-tetrahydro-quinolin-4-yl)methanone] |
| 35 | COc1cccc2c1NCCC2C(=O)n1nc2c(c1N)CCN(S(C)(=O)=O)C2 (single isomer, unassigned) [Example 64, (R*)-(3-amino-6-(methylsulfonyl)-4,5,6,7-tetrahydropyrazolo[3,4-c]pyridin-2-yl)(8-methoxy-1,2,3,4-tetrahydroquinolin-4-yl)methanone] |
| 55 | CC(C)(C)S(=O)(=O)N1CCc2c(N)nn(C(=O)C3CCNc4ccc(F)cc43)c2C1 (stereo not shown) [Example 139, (3-amino-6-(tert-butylsulfonyl)-4,5,6,7-tetrahydro-pyrazolo[3,4-c]pyridin-1-yl)(6-fluoro-1,2,3,4-tetrahydro-quinolin-4-yl)methanone] |
| 4 | CS(=O)(=O)N1CCc2c(nn(C(=O)C3CC(=O)Nc4ccc(F)cc43)c2N)C1 (stereo not shown) [Example 43, 4-(3-amino-6-(methylsulfonyl)-4,5,6,7-tetrahydro-2H-pyrazolo[3,4-c]pyridine-2-carbonyl)-6-fluoro-3,4-dihydroquinolin-2(1H)-one] |
| 0.04 | Cc1cccc2c1NCC[C@@H]2C(=O)n1nc2c(c1N)CCN(S(=O)(=O)C1CCC1)C2 (single isomer, unassigned) [Example 182, (S*)-(3-amino-6-(cyclobutyl-sulfonyl)-4,5,6,7-tetrahydro-pyrazolo[3,4-c]pyridin-2-yl)(8-methyl-1,2,3,4-tetrahydro-quinolin-4-yl)methanone] |
| 0.03 | Cc1cc2c(C(=O)n3nc4c(c3N)CCN(Cc3ccccc3)C4)cccc2[nH]1 [Example 10, (3-amino-6-benzyl-4,5,6,7-tetrahydropyrazolo[3,4-c]pyridin-2-yl)(2-methyl-1H-indol-4-yl)methanone] |
| 0.08 | Cc1cc2c(C(=O)n3nc4c(c3N)CN(C(=O)OC(C)(C)C)CC4)cccc2[nH]1 [Example 1, tert-butyl 3-amino-2-[(2-methyl-1H-indol-4-yl)carbonyl]-4,5,6,7-tetrahydro-2H-pyrazolo[4,3-c]pyridin-5-carboxylate] |
| 45 | CS(=O)(=O)N1CCc2c(N)nn(C(=O)C3CCCc4[nH]c(Cl)cc43)c2C1 (stereo not shown) [Example 133, (3-amino-6-(methylsulfonyl)-4,5,6,7-tetrahydro-pyrazolo[3,4-c]pyridin-1-yl)(2-chloro-4,5,6,7-tetrahydro-1H-indol-4-yl)methanone] |
| 14 | Nc1nn(C(=O)C2CCNc3ccc(F)cc32)c2c1CCN(S(=O)(=O)c1ccncc1)C2 (stereo not shown) [Example 156, (3-amino-6-(pyridin-4-ylsulfonyl)-4,5,6,7-tetrahydro-pyrazolo[3,4-c]pyridin-1-yl)(6-fluoro-1,2,3,4-tetrahydro-quinolin-4-yl)methanone] |
| 16 | Nc1c2c(nn1C(=O)[C@@H]1CCNc3c(Cl)cccc31)COCC2 (single isomer, unassigned) [Example 201, (R*)-(3-amino-4,5-dihydropyrano[3,4-c]pyrazol-2(7H)-yl)(8-chloro-1,2,3,4-tetrahydro-quinolin-4-yl)methanone] |
| 3 | CS(=O)(=O)N1CCc2c(nn(C(=O)C3CCCc4[nH]c(Cl)cc43)c2N)C1 (single isomer, unassigned) [Example 132, (R*)-(3-amino-6-(methylsulfonyl)-4,5,6,7-tetrahydro-pyrazolo[3,4-c]pyridin-2-yl)(2-chloro-4,5,6,7-tetrahydro-1H-indol-4-yl)methanone] |
| > 40 | CCc1cc2c([nH]1)CCCC2C(=O)n1nc(N)c2c1CCN(C(=O)OCc1ccccc1)C2 (stereo not shown) [Example 5, benzyl 3-amino-1-(2-ethyl-4,5,6,7-tetrahydro-1H-indole-4-carbonyl)-6,7-dihydro-1H-pyrazolo[4,3-c]pyridine-5(4H)-carboxylate] |
| 16 | Nc1nn(C(=O)C2CCNc3ccc(F)cc32)c2c1CCN(S(=O)(=O)C(F)F)C2 (stereo not shown) [Example 160, (3-amino-6-(difluoromethyl-sulfonyl)-4,5,6,7-tetrahydro-pyrazolo[3,4-c]pyridin-1-yl)(6-fluoro-1,2,3,4-tetrahydro-quinolin-4-yl)methanone] |
| 8.5 | CC(=O)Nc1ccc2c(c1)C(C(=O)n1nc3c(c1N)CCN(S(C)(=O)=O)C3)CCN2 (stereo not shown) [Example 47, N-(4-(3-amino-6-(methylsulfonyl)-4,5,6,7-tetrahydro-2H-pyrazolo[3,4-c]pyridine-2-carbonyl)-1,2,3,4-tetrahydroquinolin-6-yl)acetamide] |
| 30 | Cc1cccc2c1NCC[C@H]2C(=O)n1nc2c(c1N)CCNC2 (single isomer, unassigned) [Example 177, (R*)-(3-amino-4,5,6,7-tetrahydro-pyrazolo[3,4-c]pyridin-2-yl)(8-methyl-1,2,3,4-tetrahydro-quinolin-4-yl)methanone] |
| 70 | CS(=O)(=O)N1CCc2c(N)nn(C(=O)C3CCNc4c(F)cccc43)c2C1 (stereo not shown) [Example 38, (3-amino-6-(methylsulfonyl)-4,5,6,7-tetrahydropyrazolo[3,4-c]pyridin-1-yl)(8-fluoro-1,2,3,4-tetrahydroquinolin-4-yl)methanone] |
| 12.5 | Cc1cc(F)cc2c1NCC[C@H]2C(=O)n1nc2c(c1N)COCC2 (single isomer, unassigned) [Example 192, (R*)-(3-amino-6,7-dihydropyrano[4,3-c]pyrazol-2(4H)-yl)(6-fluoro-8-methyl-1,2,3,4-tetrahydro-quinolin-4-yl)methanone] |
| > 60 | Nc1nn(C(=O)C2CCNc3ccc(F)cc32)c2c1CCN(c1ccccc1)C2 (stereo not shown) [Example 29, (3-amino-6-phenyl-4,5,6,7-tetrahydropyrazolo[3,4-c]pyridin-1-yl)(6-fluoro-1,2,3,4-tetrahydroquinolin-4-yl)methanone] |
| 18 | CC(C)CN1CCc2c(N)nn(C(=O)C3CCNc4ccc(F)cc43)c2C1 (stereo not shown) [Example 154, (3-amino-6-isobutyl-4,5,6,7-tetrahydro-pyrazolo[3,4-c]pyridin-1-yl)(6-fluoro-1,2,3,4-tetrahydro-quinolin-4-yl)methanone] |
| 0.04 | Cc1cccc2c1NCC[C@@H]2C(=O)n1nc2c(c1N)CCN(S(=O)(=O)N(C)C)C2 (single isomer, unassigned) [Example 180, (S*)-3-amino-N,N-dimethyl-2-(8-methyl-1,2,3,4-tetrahydro-quinoline-4-carbonyl)-4,5-dihydro-2H-pyrazolo[3,4-c]pyridine-6(7H)-sulfonamide] |
| 3 | Cc1cccc2c1NCCC2C(=O)n1nc2c(c1N)CCN(S(C)(=O)=O)C2C (single isomer, unassigned) [Example 79, (3-amino-7-methyl-6-(methylsulfonyl)-4,5,6,7-tetrahydropyrazolo[3,4-c]pyridin-2-yl)(8-methyl-1,2,3,4-tetrahydroquinolin-4-yl)methanone] |
| 40 | Cc1cccc2c1NCC[C@H]2C(=O)n1nc2c(c1N)CCN(S(=O)(=O)C1COC1)C2 (single isomer, unassigned) [Example 186, (R*)-(3-amino-6-(oxetan-3-ylsulfonyl)-4,5,6,7-tetrahydro-pyrazolo[3,4-c]pyridin-2-yl)(8-methyl-1,2,3,4-tetrahydro-quinolin-4-yl)methanone] |
| 30 | COC(=O)N1CCc2c(N)nn(C(=O)C3CCNc4ccccc43)c2C1 (stereo not shown) [Example 115, methyl 3-amino-1-(1,2,3,4-tetrahydro-quinoline-4-carbonyl)-4,5-dihydro-1H-pyrazolo[3,4-c]pyridine-6(7H)-carboxylate] |
